These results are taken from patent US9839681B1, “Size tunable microbial mimetics for immunotherapy of cancer” (priority 2017, dated 2017).

In this data set the test system is Human peripheral blood mononuclear cells (PBMCs). The data set is described as follows: Induced cytokine secretion by PBMCs exposed for 24 hours, ELISA. In kind it is cell-based. The note with it: 25 μg/mL, 24 hours, 300,000 PBMCs per well. The procedure: FIG. 10 is bar graph showing the induced secretion of IL-6 by PBMCs exposed to PolyIC, RNA248, DNA4, DNA10, PolyIC complexed with SEQ. ID NO. 4 (CAL2), RNA248 complexed with SEQ. ID NO. 4, DNA4 complexed with SEQ. ID NO. 4, DNA10 complexed with SEQ. ID NO. 4, DNA4 and RNA248 complexed with SEQ. ID NO. 4, Pam(2)CSK4-conjugated SEQ. ID NO. 4 complexed with DNA4 and SEQ. ID NO. 4 alone. Each well contained ˜300,000 fresh PBMCs in a total volume of 100 μL of RPMI medium. Solutions of SEQ. ID NO. 4, PolyIC, DNA4, DNA10, Pam(2)CSK4-conjugated SEQ. ID NO. 4 were all pre-mixed to concentrations of 50 ug/mL (for each peptide reagent) and then added to wells in volumes of 100 uL, such that each well contained a 200 uL volume of PBMCs and reagents. Wells were run in triplicate and the mean value is indicated.
A series of in vitro experiments was conducted to characterize the immune-stimulating properties of the MM and their sub-components. Human peripheral blood mononuclear cells (PBMCs) were exposed to a MM containing SEQ. ID NO. 4 and its individual molecular sub-components for 24 hours. For reference, the PBMCs were separately exposed to PolyIC. After this time, the induced secretion of following cytokines by PBMCs was measured: interleukin-6 (IL-6), interleukin-10 (IL-10), interleukin-12 (IL-12), interleukin-15 (IL-15), tumor necrosis factor alpha (TNF-alpha), interferon-alpha (IFN-alpha), and interferon-gamma (IFN-gamma). Experiments were conducted as follows. 150 mL of blood was supplied by a human volunteer and PBMCs were isolated by Ficoll-Paque gradient centrifugation immediately after venipuncture. PBMCs were incubated for 24 hours at 37° C./5% CO2 in 96-well plates, with 300,000 PBMCs per well in a 200 μL medium containing 49% RPMI-1640/49% PBS/1% L-glutamine/1% penicillin-streptomycin and the components in Table 3 at a concentration of 25 μg/mL. All cytokines were measured in triplicate.
After 24 hours, the supernatant from each well was isolated using centrifugation at 3000 g and immediately thereafter cytokines were measured using ELISA kits from Genway Biotech (San Diego, Calif.) and Origene (Rockville, Md.). Per ELISA kit instructions, 100 μL of supernatant was used for each readout. The results are provided in FIGS. 10-16, where the mean of each measurement is provided. (In no instance did the standard deviation exceed 30%.)
Background: In an ELISA, binding on a coated surface is turned into a signal by an enzyme label.

With “5′-TCGTCGGTTTCGGCGCGCGCCG-3′ (DNA, all phosphorothioate, methylation of C not given here) [DNA4]”, the “cytokine secretion overall (seven cytokines measured)” value (“cytokine secretion overall” below) is given as “minimal cytokine secretion”, the “induced secretion of IFN-alpha” value was “somewhat immunogenic”, the “induced secretion of IL-12” value is “does not induce secretion of high amounts” and the “induced secretion of IL-15” value is reported as “does not induce secretion of high amounts”.

On to “5′-TTCGGCGCGCGCGCGCGCGCGCCGTT-3′ (DNA, all phosphorothioate, methylation of C not given here) [DNA10]”, for which the “cytokine secretion overall” value is recorded as “minimal cytokine secretion”.

With “5′-guuggugguugugugagcgu-3′ (GUUGGUGGUUGUGUGAGCGU; listed as RNA, chemistry not fully specified) [RNA248]”, the “cytokine secretion overall” value is on record as “minimal cytokine secretion”.

Regarding “RRHRKRRLSTCMLGTYTQDFNKFHTFPQTAI (Linker Sequence + synthetic peptide corresponding to calcitonin) [CAL2]”, the “cytokine secretion overall” value is “very minimal cytokine secretion”.
